Measured values reported in the METLIN SMRT retention time set (Domingo-Almenara et al. 2019).

Assay: gradient 5% acetonitrile 3 min, to 50% in 2 min, to 85% in 15 min, held 3 min, 100 µL/min
Details: column: Zorbax Extend-C18 2.1 x 50 mm; eluents: water / acetonitrile, 0.1% formic acid
Procedure, shortened: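 Retention times of pure standards were taken from adduct peaks that were selected by computer and manually inspected. Over 3 months, mixtures of ~100 molecules were run by HPLC–quadrupole time-of-flight mass spectrometry in positive and negative ionization mode. The Zorbax Extend-C18 column (2.1 × 50 mm, 1.8 μm) ran at 100 μL/min in water and acetonitrile, each containing 0.1% formic acid, with 40 μL dead volume and 900 μL dwell volume.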

CCn1cnc(S(=O)(=O)N2CCC(C(=O)Nc3ccc4c(c3)OCO4)CC2)c1
RP-LC retention time: 688 s

CCOc1ccc(-c2noc(Cn3c(=O)n(CC(C)C)c(=O)c4ccccc43)n2)cc1OC
RP-LC retention time: 1270 s

O=C(NC1(c2nc(C3CC3)no2)CCCCC1)c1cc(-c2ccc(F)cc2)n[nH]1
RP-LC retention time: 905 s

O=C(COc1ccccc1)N1CCc2[nH]nc(-c3ccccc3)c2C1
RP-LC retention time: 788 s

Cc1cc(C(=O)N2CC(C(=O)Nc3cccc(-c4csc(C)n4)c3)C2)no1
RP-LC retention time: 721 s

O=C(Cn1cccc(-c2nc(-c3ccc(Cl)cc3)no2)c1=O)NC1CCCC1
RP-LC retention time: 881 s

COc1ccc2c(OCc3nnc4ccc(-c5ccccc5)nn34)ccnc2c1
RP-LC retention time: 690 s

Cc1cc(-c2nnc(-c3ccco3)o2)c(C)n1CC(=O)NCc1ccc(Cl)cc1
RP-LC retention time: 637 s

Cc1oc(-c2[nH]ncc2C(=O)N2CCCC2)cc1S(=O)(=O)Nc1ccc(F)cc1
RP-LC retention time: 705 s

O=C(c1cccnc1)N1CCCCC1c1nncn1Cc1ccccc1 (centres undefined)
RP-LC retention time: 620 s

Cc1ccc(F)cc1NC(=O)Cn1nc2cc(-c3ccccn3)nc(C)n2c1=O
RP-LC retention time: 767 s

O=C(Cc1cccc(F)c1)NC1CCN(c2cc(-c3cccs3)[nH]n2)C1 (centres undefined)
RP-LC retention time: 710 s

CSc1cccc(NC(=O)CSc2ccc(N3CCCC(C(=O)NC4CC4)C3)nn2)c1 (centres undefined)
RP-LC retention time: 682 s

O=C(NC1CCCCC1)c1ccc2ccnc(N3CCN(c4ccc(F)cc4)CC3)c2c1
RP-LC retention time: 908 s

Cc1ccc(-c2coc(-c3ccc(NC(=O)NC4CCCC4)cc3)n2)c(C)c1
RP-LC retention time: 1180 s

CCOC(=O)C1=C(CN2CCCC(c3ccccc3)C2)NC(=O)NC1c1cccc(OC)c1OC (centres undefined)
RP-LC retention time: 695 s

Cc1cc(NC(=O)C2CCN(C(=O)c3cnn(-c4ccccc4)n3)CC2)no1
RP-LC retention time: 847 s

CCN1C(=O)c2cccnc2Sc2cc(NC(=O)c3ccc(C)c(F)c3)ccc21
RP-LC retention time: 896 s

CCOC(=O)c1ccccc1NC(=O)Cn1cccc(-c2nc(-c3ccc(Cl)cc3)no2)c1=O
RP-LC retention time: 1160 s

COc1cc(NC(=O)Cn2nc3c(N4CCSCC4)nccn3c2=O)cc(OC)c1
RP-LC retention time: 795 s

O=C(Nc1ccc(F)c(Cl)c1)C1CCN(C(=O)C2Sc3ccccc3NC2=O)CC1 (centres undefined)
RP-LC retention time: 826 s

Cc1ccc(C2Cn3cnc(C(=O)N4CCC(C(=O)NCc5ccc(F)cc5F)CC4)c3CO2)cc1 (centres undefined)
RP-LC retention time: 830 s

CC(C)CN1Cc2ccccc2-n2ccnc2C12CCN(C(=O)c1ccc(F)cc1)CC2
RP-LC retention time: 739 s

CCN1CCn2cc(S(=O)(=O)Nc3cccc(C)c3)cc2C1=O
RP-LC retention time: 736 s

c1ccc(CCNc2nc(-c3ccccc3)no2)cc1
RP-LC retention time: 1000 s

CCN1CCC(N(Cc2cccs2)C(=O)Nc2ccc(C)cc2)CC1
RP-LC retention time: 667 s

COCCO[C@H]1C(=O)N(C2CCN(S(=O)(=O)C(C)C)CC2)[C@H]1c1ccncc1
RP-LC retention time: 572 s

O=C(c1cc(-c2ccccc2)n[nH]1)N1C[C@H]2CNC(=O)[C@]23CCCC[C@@H]13
RP-LC retention time: 683 s

CCOC(=O)c1ccc(NC(=O)c2cc3sc(Cl)cc3n2CC)cc1
RP-LC retention time: 1260 s

Fc1ccc(-c2nc3ncccn3c2Nc2ccc(Cl)cc2)cc1
RP-LC retention time: 847 s

Cc1cc(C)n2c(Nc3c(C)cccc3C)c(-c3cccc(Cl)c3)nc2n1
RP-LC retention time: 902 s

O=C(NCC(=O)N1CCN(c2ccccn2)CC1)c1ccc(OC(F)(F)F)cc1
RP-LC retention time: 635 s

COc1ncc(C(=O)Nc2ccc(F)cc2F)c(C)n1
RP-LC retention time: 724 s

c1cncc(-c2nnc3sc(-c4ccc5c(c4)OCCO5)nn23)c1
RP-LC retention time: 827 s

CC(=O)N1C(=O)C2(NCC(C)N2)c2ccccc21 (centres undefined)
RP-LC retention time: 625 s

Cn1nnnc1C1CCCN(S(=O)(=O)Cc2ccccc2F)C1 (centres undefined)
RP-LC retention time: 757 s

CCCS(=O)(=O)N1CCCN(S(=O)(=O)c2ccccc2)CCC(=O)NCC1
RP-LC retention time: 707 s

COCC(C)NC(=O)C(=O)c1cn(CC(=O)N2CCOCC2)c2ccccc12 (centres undefined)
RP-LC retention time: 704 s

Cc1cc(C)cc(Nc2c(-c3ccc(N(C)C)cc3)nc3cnccn23)c1
RP-LC retention time: 921 s

O=C1CCC2(C(=O)N3CCN(c4ccccn4)CC3)CCC=C2N1C1CCCC1 (centres undefined)
RP-LC retention time: 579 s

COCCc1noc(C2CN(C(=O)c3ccsc3)C2)n1
RP-LC retention time: 654 s

CCc1ccccc1NC(=O)C1CC(=O)N(c2ccc3c(c2)CCN3C(=O)C2CC2)C1 (centres undefined)
RP-LC retention time: 780 s

CCOC(=O)c1[nH]c(C)c(CCC(=O)N2CCC(C(=O)N3CCCCC3)CC2)c1C
RP-LC retention time: 737 s

O=C(O)c1cccc2c1CCN2S(=O)(=O)c1ccccc1
RP-LC retention time: 793 s
